Among the data in ChEMBL document CHEMBL1149836, “Antifungal metabolites from the plant endophytic fungus Pestalotiopsis foedan” (2008) are zone of inhibition values, retold here.

Format in all cases: functional
The subject of one experiment is Geotrichum candidum. The experiment in a line: Antifungal activity against Geotrichum candidum AS2.498 at 100 ug/ml after 48 hrs by agar diffusion assay. As to conditions: read-out: IZ. (In agar diffusion tests the substance spreads into inoculated agar from a disc or well.)
A further experiment relates to Aspergillus fumigatus. In words: Antifungal activity against Aspergillus fumigatus ATCC 10894 at 100 ug/ml after 48 hrs by agar diffusion assay. The following applies: ATCC 10894, 48 h, read-out: IZ.
For the next experiment, the system named is Candida albicans. The experiment in a line: Antifungal activity against Candida albicans ATCC 10231 at 100 ug/ml after 48 hrs by agar diffusion assay. The following applies: ATCC 10231, 48 h, read-out: IZ.

For `Cc1c(O)cc2c(c1O)C(=O)O[C@H]2[C@H](C)O` [PESTAPHTHALIDE B], the zone of inhibition at 100 µg/mL with Geotrichum candidum was 11 mm.
As for `OC(Cn1cncn1)(Cn1cncn1)c1ccc(F)cc1F` [FLUCONAZOLE], the zone of inhibition at 100 µg/mL in the experiment with Aspergillus fumigatus, in the experiment with Candida albicans and in the experiment on Geotrichum candidum was 18 mm throughout.
`C[C@H]1CCC[C@@]2(CC3=C(CO2)C(=O)[C@](C)(O)[C@@H](O)C3)O1` [PESTAFOLIDE A]: in the experiment with Aspergillus fumigatus, the zone of inhibition at 100 µg/mL came out at 10 mm.
In the case of `Cc1c(O)cc2c(c1O)C(=O)O[C@@H]2[C@H](C)O` [PESTAPHTHALIDE A], the zone of inhibition at 100 µg/mL with Candida albicans was found to be 13 mm.
